Tests used:
Experiment in all cases: relative viability (nuclei count vs DMSO), 5 days (fraction); higher = more cells survive
[1] = compound: C1COCCN1CC2=CC(=O)C(=CO2)OCCCCCSC3=C4C=CC(=CC4=NC=C3)C(F)(F)F [EHT 1864] + Nc1nc2[nH]cc(CCc3ccc(C(=O)N[C@@H](CCC(=O)O)C(=O)O)cc3)c2c(=O)[nH]1 [Pemetrexed] (partner 0.2 µM)
Procedure, shortened: (§1)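 Lung cancer cell lines, seeded in 1536-well plates, were treated the following day by pin tool with a single drug or with five library-drug doses (not always all listed) in √10 steps on top of a fixed anchor-drug dose. Cells were fixed and nuclei stained in one step after 5 days, and nuclei were counted. Relative viability is the nuclei count for treated wells divided by that for vehicle wells, reported as medians of duplicate plates.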

[2] = compound: C1COCCN1CC2=CC(=O)C(=CO2)OCCCCCSC3=C4C=CC(=CC4=NC=C3)C(F)(F)F [EHT 1864] + Cc1nc(NC(=O)N2CCC[C@H]2C(N)=O)sc1-c1ccnc(C(C)(C)C(F)(F)F)c1 [Alpelisib] (partner 2 µM)
Procedure, shortened: as §1

[3] = compound: C1COCCN1CC2=CC(=O)C(=CO2)OCCCCCSC3=C4C=CC(=CC4=NC=C3)C(F)(F)F [EHT 1864] + O=C(c1cc(Cc2n[nH]c(=O)c3ccccc23)ccc1F)N1CCN(C(=O)C2CC2)CC1 [Olaparib] (partner 8 µM)
Procedure, shortened: as §1

[4] = compound: C1COCCN1CC2=CC(=O)C(=CO2)OCCCCCSC3=C4C=CC(=CC4=NC=C3)C(F)(F)F [EHT 1864] + CC(C)C[C@H](NC(=O)[C@H](Cc1ccccc1)NC(=O)c1cnccn1)B(O)O [Bortezomib] (partner 0.002 µM)
Procedure, shortened: as §1

| Cell Line | relative viability ([1]; first compound 0.04 µM) | relative viability ([1]; first compound 0.1265 µM) | relative viability ([1]; first compound 0.4 µM) | relative viability ([1]; first compound 1.265 µM) | relative viability ([1]; first compound 4 µM) | relative viability ([2]; first compound 0.04 µM) | relative viability ([2]; first compound 0.1265 µM) | relative viability ([2]; first compound 0.4 µM) | relative viability ([2]; first compound 1.265 µM) | relative viability ([2]; first compound 4 µM) | relative viability ([3]; first compound 0.04 µM) | relative viability ([3]; first compound 0.1265 µM) | relative viability ([3]; first compound 0.4 µM) | relative viability ([3]; first compound 1.265 µM) | relative viability ([3]; first compound 4 µM) | relative viability ([4]; first compound 0.04 µM) | relative viability ([4]; first compound 0.1265 µM) | relative viability ([4]; first compound 0.4 µM) | relative viability ([4]; first compound 1.265 µM) | relative viability ([4]; first compound 4 µM) |
| --- | --- | --- | --- | --- | --- | --- | --- | --- | --- | --- | --- | --- | --- | --- | --- | --- | --- | --- | --- | --- |
| 201T | 0.346 | 0.326 | 0.351 | 0.266 | 0.291 | 1.02 | 1.08 | 0.977 | 0.982 | 1.01 | 0.821 | 0.794 | 0.856 | 0.73 | 0.81 | 1.14 | 1.04 | 1.05 | 1.09 | 1.09 |
| A549 |  |  |  |  |  | 0.637 | 0.735 | 0.694 | 0.805 | 0.712 | 0.302 | 0.299 | 0.368 | 0.246 | 0.428 |  |  |  |  |  |
| A-427 | 0.979 | 1.01 | 0.952 | 0.931 | 0.935 | 1.15 | 1.08 | 1.04 | 1.11 | 1.13 | 0.768 | 0.734 | 0.778 | 0.678 | 0.713 | 1.06 | 1.02 | 0.944 | 0.931 | 0.863 |
| ABC-1 |  |  |  |  |  | 0.665 | 1 | 1.05 | 0.92 | 1.07 | 1.24 | 0.695 | 0.861 | 0.629 | 0.762 | 0.32 | 0.306 | 0.316 | 0.371 | 0.303 |
| BEN | 0.763 | 0.678 | 0.908 | 0.697 | 0.715 | 0.941 | 0.825 | 0.92 | 0.938 | 1.1 | 1.06 | 0.982 | 0.836 | 0.914 | 1 | 0.8 | 0.719 | 0.64 | 0.549 | 0.624 |
| CAL-12T | 1.08 | 1.12 | 1.09 | 1.18 | 0.964 | 1.23 | 1.14 | 1.08 | 1.25 | 1.05 | 0.702 | 0.642 | 0.721 | 0.706 | 0.611 | 1.03 | 0.815 | 0.928 | 0.965 | 0.981 |
| COR-L23 | 0.197 | 0.193 | 0.196 | 0.194 | 0.214 | 0.832 | 0.878 | 0.815 | 0.855 | 0.76 | 0.35 | 0.359 | 0.314 | 0.392 | 0.213 | 1.08 | 0.85 | 1.01 | 1.05 | 0.867 |
| COR-L 105 | 1.03 | 1.06 | 0.966 | 1.01 | 0.984 | 0.906 | 1.06 | 1.03 | 0.969 | 0.841 | 0.792 | 0.692 | 0.777 | 0.648 | 0.624 | 0.772 | 0.7 | 0.941 | 0.751 | 0.727 |
| Calu-6 |  |  |  |  |  | 0.983 | 0.932 | 0.948 | 1.01 | 0.904 | 0.615 | 0.563 | 0.594 | 0.507 | 0.502 | 0.97 | 0.844 | 0.846 | 1.11 | 0.917 |
| ChaGo-K-1 | 0.261 | 0.27 | 0.25 | 0.264 | 0.256 |  |  |  |  |  | 0.403 | 0.442 | 0.443 | 0.406 | 0.349 | 0.939 | 1.05 | 0.997 |  | 0.965 |
| EBC-1 |  |  |  |  |  | 0.843 | 0.697 | 0.886 | 0.908 | 0.881 | 0.74 | 0.689 | 0.671 | 0.696 | 0.574 | 0.56 | 0.524 | 0.505 | 0.509 | 0.541 |
| EKVX | 0.362 | 0.381 | 0.404 | 0.34 | 0.495 | 0.894 | 0.836 | 0.875 | 0.871 | 0.795 | 0.741 | 0.823 | 0.806 | 0.83 | 0.788 | 0.995 | 0.984 | 0.971 | 0.818 | 0.977 |
| EMC-BAC-2 | 0.454 | 0.421 | 0.491 | 0.439 | 0.432 | 0.694 | 0.682 | 0.718 | 0.705 | 0.768 | 0.616 | 0.467 | 0.436 | 0.464 | 0.458 | 1.07 | 0.891 | 1.06 | 0.951 | 1.23 |
| EPLC-272H | 0.317 | 0.332 | 0.317 | 0.365 | 0.356 | 1.08 | 0.933 | 0.977 | 1.07 | 0.999 | 0.741 | 0.672 | 0.788 | 0.642 | 0.611 | 0.774 | 0.63 | 0.839 | 0.823 | 0.977 |
| H3255 | 0.532 | 0.603 | 0.576 | 0.572 | 0.561 | 0.652 | 0.516 | 0.675 | 0.718 | 0.711 | 0.56 | 0.537 | 0.573 | 0.55 | 0.569 | 0.697 | 0.6 | 1.11 | 0.784 | 1.03 |
| HARA | 0.27 |  | 0.267 | 0.3 | 0.234 | 0.762 | 0.758 | 0.843 | 0.814 | 0.857 | 0.872 |  | 0.967 | 0.876 | 0.761 | 1.12 | 1.11 | 1.2 | 1.12 | 0.999 |
| HCC-15 | 0.224 |  | 0.24 | 0.226 | 0.218 | 0.902 | 0.797 | 0.903 | 0.823 | 0.842 | 0.717 |  | 0.678 | 0.685 | 0.706 | 0.955 | 0.808 | 1.04 | 0.867 | 1.05 |
| HCC-44 | 0.603 | 0.594 | 0.618 | 0.674 | 0.674 | 0.801 | 0.703 | 0.751 | 0.695 | 0.857 | 1.04 | 0.896 | 1.01 | 0.92 | 1.02 | 0.968 | 0.757 | 0.812 | 0.851 | 0.876 |

Reference: the supplement of paper PMC10307832
